{
  "source": "patent US20150017156A1",
  "about": "“ESX-MEDIATED TRANSCRIPTION MODULATORS AND RELATED METHODS” (THE OHIO STATE UNIVERSITY, priority 2011, published 2015)",
  "key": {"[1]": {"tested_on": "Her2 expression in SKBR3 cells", "conditions": "cited from earlier work"}, "[2]": {"tested_on": "SKBR3 Her2-positive breast carcinoma cells", "conditions": "cited from earlier work"}, "[3]": {"tested_on": "CAL27 HNSCC cells", "experiment": "Xenograft model of HNSCC, CAL27 in athymic nude mice"}, "[4]": {"tested_on": "SCC25 cells", "experiment": "Cell proliferation (CCK-8 reagent), SCC25", "assay_type": "cell-based", "conditions": "Homo sapiens, read-out: IC50 for cell proliferation", "protocol": "(§1) A. EGFR and Her2 levels. […] Cell lysates were prepared and determined for EGFR and Her2 protein levels by immunoblot analyses. B. Cell proliferation. […] (ESXm) for 24 hours. Cell proliferation was assessed using the CCK-8 reagent to detect metabolic active cells. Dose-response curves and IC50 values were generated using GraphPad Prism 4.0 (GraphPad Software, La Jolla, Calif.). […] C. Cell invasion. Cell invasion was determined as described from the cell invasion assay kit (Chemicon International, Temecula, Calif.). […] An aliquot (1×10^5 cells) of the prepared cell suspension was added to the top chamber and 10% FBS was added to the bottom chamber. After 24 hours, non-invading cells were gently removed from the interior of the inserts with a cotton-tipped swab. Invasive cells were stained and visualized. A representative field for each experimental condition is presented. D. Cell migration. Cell migration was determined using the wound healing assay. Cells were seeded and allowed to grow until confluence. […] A representative field for each experimental condition at 0 hour and 24 hours is presented.\n(§2) Cell proliferation was assessed using the CCK-8 reagent to detect metabolic active cells. Dose-response curves and IC50 values were generated using GraphPad Prism 4.0 (GraphPad Software, La Jolla, Calif.)."}, "[5]": {"tested_on": "EGFR and Her2 levels in SCC25 cells", "conditions": "24 hours, immunoblot", "protocol": "(§3) A. EGFR and Her2 levels. […] Cell lysates were prepared and determined for EGFR and Her2 protein levels by immunoblot analyses. B. Cell proliferation. […] Cell proliferation was assessed using the CCK-8 reagent to detect metabolic active cells. Dose-response curves and IC50 values were generated using GraphPad Prism 4.0 (GraphPad Software, La Jolla, Calif.). […] C. Cell invasion. Cell invasion was determined as described from the cell invasion assay kit (Chemicon International, Temecula, Calif.). […] An aliquot (1×10^5 cells) of the prepared cell suspension was added to the top chamber and 10% FBS was added to the bottom chamber. After 24 hours, non-invading cells were gently removed from the interior of the inserts with a cotton-tipped swab. Invasive cells were stained and visualized. A representative field for each experimental condition is presented. D. Cell migration. Cell migration was determined using the wound healing assay. Cells were seeded and allowed to grow until confluence. […] A representative field for each experimental condition at 0 hour and 24 hours is presented."}, "[6]": {"tested_on": "EGFR and Her2 levels in CAL27 cells", "conditions": "24 hours, immunoblot", "protocol": "as §3"}, "[7]": {"tested_on": "SCC25 cells", "conditions": "15 μmol/L", "protocol": "as §3"}, "[8]": {"tested_on": "CAL27 cells", "conditions": "12.5 μmol/L", "protocol": "as §3"}, "[9]": {"tested_on": "CAL27 cells", "experiment": "Cell proliferation (CCK-8 reagent), CAL27", "assay_type": "cell-based", "conditions": "Homo sapiens, read-out: IC50 for cell proliferation", "protocol": "as §1, §2"}, "[10]": {"experiment": "Precipitation in cell culture media", "assay_type": "physicochemical", "conditions": "higher concentrations"}, "[11]": {"tested_on": "phosphorylated erbB2 levels in SkBr3 cells", "method": "ErbB2 and p-erbB2 ELISA: ELISA assays were performed based on those published elsewhere.[4] […] After 24 hours, media was removed carefully and cells were fixed and permeabilized with cold (−20° C.) methanol. The cells were then washed twice with TBST, blocked for 2 hours at room temperature with superblock (TBST solution from Pierce), incubated with the primary antibody overnight at 4° C. (as a 1:500 solution in superblock). Cells were then washed twice more with TBST and incubate with secondary antibody for 2 hours at room temperature (as a 1:1000 solution in superblock). After being washed 3 times with TBST, Slow TMB (Pierce) was added to measure antibody levels in accordance with the manufacturer's instructions and the absorbance at 370 nm was measured. The cells were washed 3 more times with TBST and total protein levels were measured at 560 nm using BCA reagent (Pierce). […] The resulting ratios were then normalized to cells treated with DMSO."}, "[12]": {"tested_on": "SkBr3 (erbB2+) cells", "from_the_text": "Isobolograms were generated by computing dose fractions directly from the IC50s. Dose fraction is defined as the dose of one component in a combination required to exert a given effect (usually IC50, as in this case) divided by the dose of that component in isolation required to exert the same effect. Thus each combination reported has two dose fraction measurements (eg. dose fraction it and dose fraction lapatinib) that define the combinations x/y coordinates on the isobologram.\nDose fraction of A for combination AB=IC50(A in AB)/IC50(A in isolation)\nDose fraction of B for combination AB=IC50(B in AB)/IC50(B in isolation)\nThe sum of these x/y coordinates are the combination index. By definition, the CI for either agent in isolation is 1. For the null hypothesis (in which both agents act as though they are equivalent doses of the same agent) the CI will be 1. For combinations where the CI<1, synergy is present.\nCI(combination index)=dose fraction A+dose fraction B.\nFor the experiments used to generate dose-effect curves for the isobolograms and selectivity experiments, cells were plated at 3000 cells per well in 96 well plates. […] The day after the final treatment, cell viability was measured using WST-1 reagent (Roche) in accordance with the manufacturer's instructions. […]"}},
  "note": "Like-named read-outs stand apart in the source and are kept apart here.",
  "data": [
    {"smiles": "Cc1ccc(S(=O)(=O)n2ccc3c(OCC(O)CN(CCCCCN)C(=O)N4CCC(C5CCN(C(=O)C67CC8CC(CC(C8)C6)C7)CC5)CC4)cccc32)cc1", "note": "(stereo not shown) [Wrenchnolol, wrenchnolol, reference compound]", "values": [
      {"measurement": "Her2 expression", "setting": "[1]", "result": "decreased Her2 expression"},
      {"measurement": "cell proliferation", "setting": "[2]", "result": "inhibited cell proliferation"}
    ]},
    {"smiles": "CN(C)C/C=C/C(=O)Nc1cc2c(Nc3ccc(F)c(Cl)c3)ncnc2cc1O[C@H]1CCOC1", "note": "[afatinib]", "values": [
      {"measurement": "mean tumor volume", "setting": "[3]", "result": 43, "unit": "mm^3"},
      {"measurement": "mean tumor volume, single-agent afatinib arm compared to the combination treatment arm", "setting": "[3]", "result": 2.1, "unit": "fold"}
    ]},
    {"smiles": "CC(C)C[C@]1(CCO)C[C@H](CN=[N+]=[N-])ON1Cc1ccc(-c2ccccc2)cc1", "note": "[biphenyl isoxazolidine]", "values": [
      {"measurement": "IC50", "setting": "[4]; SCC-25, 24 h", "result": 50.3, "unit": "µM"},
      {"measurement": "EGFR and Her2 levels", "setting": "[5]", "result": "dose-dependent decrease"},
      {"measurement": "EGFR and Her2 levels", "setting": "[6]", "result": "dose-dependent decrease"},
      {"measurement": "Cell invasion", "setting": "[7]", "result": "dramatically suppressed"},
      {"measurement": "Cell migration", "setting": "[7]", "result": "dramatically suppressed"},
      {"measurement": "Cell invasion", "setting": "[8]", "result": "dramatically suppressed"},
      {"measurement": "Cell migration", "setting": "[8]", "result": "dramatically suppressed"},
      {"measurement": "IC50", "setting": "[9]; CAL-27, 24 h", "result": 46.8, "unit": "µM"},
      {"measurement": "Her2 expression", "setting": "[1]", "result": "decreased Her2 expression"},
      {"measurement": "cell proliferation", "setting": "[2]", "result": "inhibited cell proliferation"}
    ]},
    {"smiles": "C#Cc1cccc(Nc2ncnc3cc(OCCOC)c(OCCOC)cc23)c1", "note": "[erlotinib]", "values": [
      {"measurement": "precipitation out of cell culture media", "setting": "[10]", "result": "precipitate out of cell culture media at higher concentrations"}
    ]},
    {"smiles": "CS(=O)(=O)CCNCc1ccc(-c2ccc3ncnc(Nc4ccc(OCc5cccc(F)c5)c(Cl)c4)c3c2)o1", "note": "[lapatinib, reference compound]", "values": [
      {"measurement": "IC50", "setting": "[4]; SCC-25, SCC25 cells, 24 hours of treatment, single agent", "result": 11.9, "unit": "µM"},
      {"measurement": "effects on erbB2 and phosphorylated erbB2 levels as single agents", "setting": "[11]", "result": "moderate effects"},
      {"measurement": "IC50", "setting": "[12]", "result": "0.048 ± 0.017", "unit": "µM"},
      {"measurement": "IC50", "setting": "[9]; CAL-27, CAL27 cells, 24 hours of treatment, single agent", "result": 11.8, "unit": "µM"}
    ]}
  ]
}
